Test results from patent US4244954A, “Acridine compounds and methods of combatting viruses with them” (Sterling Drug Inc., priority 1978, dated 1981).
Like-named read-outs stand apart in the source and are kept apart here.

How the values were obtained:
[1] = test system: herpes simplex virus type 2; experiment: in vitro antiviral activity, serial dilution, herpes simplex virus type 2; format: cell-based; settings: Human alphaherpesvirus 2
Procedure: (§1) Antiviral activity was determined in vitro by the conventional serial dilution technique against selected virus species such as herpes simplex virus types 1 and 2. In vivo antiviral activity was determined against herpes virus in the mouse genital model and the guinea pig skin infection model.

[2] = test system: herpes simplex type 2; experiment: in vivo antiviral activity, mouse genital model; design: species or system mice
Procedure: as §1

[3] = test system: herpes simplex virus 1; experiment: in vitro antiviral activity, serial dilution, herpes simplex virus type 1; format: cell-based; settings: Human alphaherpesvirus 1, read-out: concentration at which active against herpes simplex virus 1
Procedure: as §1

[4] = test system: six herpes simplex strains; experiment: plaque count reduction, six herpes simplex strains; format: cell-based, herpes simplex virus; settings: at 4-10 mg./ml.
[5] = test system: influenza virus A2 /Jap 170; experiment: influenza virus titers in ferret nasal washings; format: in vivo; settings: 100-200 mg/kg/day
[6] = test system: herpes simplex virus type 1; experiment: in vivo antiviral activity, guinea pig skin infection model; settings: after 48 hours of topical treatment
Procedure: as §1

[7] = test system: Trypanosoma brucei; format: in vivo, mice; settings: for curative effect against T. brucei infection: mice, oral
Procedure: (§2) Trypanosomacidal activity was determined against Trypanosoma brucei in mice. In a curative test medication was given (orally or parenterally) as a single dose or daily in equally subdivided doses eight hours apart for four days beginning 72 hours after intraperitoneal infection. In a prophylactic-suppressive test the total daily medication was given as a single treatment one day prior to infection, and thereafter for three consecutive days the total daily medications were administered as equally subdivided doses eight hours apart. The infection was uniformly fatal in five to six days in the absence of therapy. Chemotherapeutic effectiveness was based on extension of survival time. Tests were considered terminated 28 days after infection.

[8] = test system: Trypanosoma brucei; experiment: prophylactic-suppressive test against Trypanosoma brucei infection in mice; format: in vivo; settings: oral, 50 mg per kg per day
Procedure: as §2

[9] = test system: Endameba criceti; experiment: amebicidal activity in infected hamsters; format: in vivo; settings: Mesocricetus auratus, 72 h, oral, read-out: dose at which active orally against Endameba criceti in hamsters
Procedure: Amebicidal activity was determined by oral administration of the test compound orally to hamsters infected with Endameba criceti and the amount of drug necessary to clear the animals of infection in three days was determined.

[10] = test system: S. pyogenes; experiment: in vitro antimicrobial activity, serial dilution, S. pyogenes; format: cell-based; settings: Streptococcus pyogenes, read-out: minimum inhibitory concentration (MIC), bacteriostatic activity against S. pyogenes
Procedure: (§3) The antimicrobial activity of the compounds was determined in vitro by the conventional serial dilution technique against several species of bacteria and fungi, e.g. S. aureus, S. pyogenes, C. albicans, T. mentagrophytes.

[11] = test system: S. aureus; experiment: in vitro antimicrobial activity, serial dilution, S. aureus; format: cell-based; settings: Staphylococcus aureus, read-out: minimum inhibitory concentration (MIC), bacteriostatic activity against S. aureus
Procedure: as §3

[12] = test system: C. albicans; experiment: in vitro antimicrobial activity, serial dilution, C. albicans; format: cell-based; settings: Candida albicans, read-out: MIC, fungistatic activity against C. albicans
Procedure: as §3

[13] = test system: T. mentagrophytes; experiment: in vitro antimicrobial activity, serial dilution, T. mentagrophytes; format: cell-based; settings: Trichophyton mentagrophytes, read-out: MIC, fungistatic activity against T. mentagrophytes
Procedure: as §3

[14] = read-out: concentration at which active in vitro against herpes simplex virus type 2
[15] = in vitro, read-out: concentration at which active against herpes simplex virus 2
[16] = concentration at which active, read-out: antiviral activity against herpes type 2

SMILES: CN(C)CCOc1ccc2c(c1)c(=O)c1ccccc1n2C [Example 1, 2-(2-Dimethylaminoethoxy)-10-methyl-9(10H)-acridinone]
- minimal effective concentration [1, 14]: 3 to 6 µg/mL

SMILES: Cn1c2ccccc2c(=O)c2cc(OCCN3CCCC3)ccc21 [Example 7, 2-[2-(1-Pyrrolidyl)ethoxy]-10-methyl-9(10H)-acridinone]
- effect against herpes virus 2 genital infection in mice ([2]; mice, genital infection): effective
- minimal effective concentration [1, 15]: 6 µg/mL
- minimal effective concentration [3]: 6 µg/mL

SMILES: Cn1c2ccccc2c(=O)c2cc(OCCN3CCOCC3)ccc21 [Example 8, 2-[2-(4-Morpholinyl)ethoxy]-10-methyl-9(10H)-acridinone]
- minimal effective concentration [1, 15]: 25 µg/mL
- minimal effective concentration [3]: 25 µg/mL

SMILES: CN1CCN(CCOc2ccc3c(c2)c(=O)c2ccccc2n3C)CC1 [Example 9, 2-[2-(4-Methyl-1-piperazinyl)ethoxy]-10-methyl-9(10H)-acridinone]
- minimal effective concentration [1, 15]: 25 µg/mL
- minimal effective concentration [3]: 25 µg/mL

SMILES: Cn1c2ccccc2c(=O)c2cc(OCCN3CCCCC3)ccc21 [Example 10, 2-[2-(1-Piperidyl)ethoxy]-10-methyl-9(10H)-acridinone]
- minimal effective concentration [3]: 6 µg/mL

SMILES: CCn1c2ccccc2c(=O)c2cc(OCCN3CCCC3)ccc21 [Example 11, 2-[2-(1-Pyrrolidyl)ethoxy]-10-ethyl-9(10H)-acridinone]
- minimal effective concentration [1, 15]: 25 µg/mL
- minimal effective concentration [3]: 25 µg/mL

SMILES: Cn1c2ccccc2c(=O)c2cccc(OCCN3CCCC3)c21 [Example 13, 4-[2-(1-Pyrrolidyl)ethoxy]-10-methyl-9(10H)-acridinone]
- minimal effective concentration [1, 15]: 12 µg/mL

SMILES: Cn1c2ccccc2c(=O)c2cccc(OCCN3CCCCC3)c21 [Example 15, 4-[2-(1-Piperidyl)ethoxy]-10-methyl-9(10H)-acridinone]
- minimal effective concentration [1, 15]: 12 µg/mL

SMILES: Cn1c2ccccc2c(=O)c2cc(OCCCCN3CCCC3)ccc21 [Example 16, 2-[4-(1-Pyrrolidyl)butoxy]-10-methyl-9(10H)-acridinone]
- minimal effective concentration [1, 15]: 6 µg/mL
- minimal effective concentration [3]: 6 µg/mL

SMILES: CN(C)CCOc1cccc2c1c(=O)c1ccccc1n2C [Example 27, 1-(2-Dimethylaminoethoxy)-10-methyl-9(10H)-acridinone]
- survival in mice with genital herpes simplex type 2 infection ([2]; concentrations ranging from 2.5 to 10%): 50-90%
- reduction of the plaque counts of six herpes simplex strains [4]: at least 50%
- minimal effective concentration [1, 15]: 6 µg/mL
- reduction in influenza virus A2 /Jap 170 titers in ferret nasal washings [5]: significant reduction
- reduction of virus titer of herpes simplex virus type 1 in guinea pig skin infection [6]: more than 99%
- minimal effective concentration [3]: 6 µg/mL

SMILES: Cn1c2ccccc2c(=O)c2c(OCCN3CCCCC3)cccc21 [Example 33, 1-[2-(1-Piperidyl)ethoxy]-10-methyl-9(10H)-acridinone]
- minimal effective concentration [3]: 6 µg/mL

SMILES: CN1C2CCCC1CC(Oc1cccc3c1c(=O)c1ccccc1n3C)C2 (stereo not drawn) [Example 34, exo-1-(9-Methylgranatanin-3-yloxy)-10-methyl-9(10H)-acridinone]
- minimal effective concentration [1, 15]: 25 µg/mL
- minimal effective concentration [3]: 25 µg/mL

SMILES: CN(C)CCOc1ccc2c(c1)C(O)(c1ccccc1)c1ccccc1N2C (stereo not drawn) [Example 37, 2-(2-Dimethylaminoethoxy)-9,10-dihydro-10-methyl-9-phenyl-9-acridinol]
- effect against T. brucei infection, intramuscular ([7]; intramuscularly, single dose of 200 mg/kg three days after infection): completely effective
- effect against T. brucei infection, intraperitoneal ([7]; intraperitoneally, single dose of 200 mg/kg three days after infection): completely effective
- curative effect against T. brucei infection ([7]; 25 mg/kg/day×4): completely effective
- effect against T. brucei infection, subcutaneous ([7]; subcutaneously, single dose of 200 mg/kg three days after infection): completely effective
- prophylactic effect against T. brucei infection [8]: completely effective

SMILES: CCN(CC)CCOc1ccc2c(c1)C(O)(c1ccccc1)c1ccccc1N2C (stereo not drawn) [Example 38, 2-(2-Diethylaminoethoxy)-9,10-dihydro-10-methyl-9-phenyl-9-acridinol]
- curative effect against T. brucei infection ([7]; 50 mg/kg/day×4): completely effective

SMILES: COc1ccc(C2(O)c3ccccc3N(C)c3ccc(OCCN(C)C)cc32)cc1 (stereo not drawn) [Example 65, 2-(2-Dimethylaminoethoxy)-9,10-dihydro-9-(4-methoxyphenyl)-10-methyl-9-acridinol]
- curative effect against T. brucei infection ([7]; 200 mg/kg/day×4): completely effective

SMILES: CN(C)CCOc1ccc2c(c1)c(-c1ccccc1)c1ccccc1[n+]2C.Cl.[Cl-] [Example 68, 2-(2-Dimethylaminoethoxy)-10-methyl-9-phenylacridinium chloride hydrochloride]
- curative effect against T. brucei infection ([7]; 25 mg/kg/day×4): completely effective
- toxicity upon parenteral administration ([7]; mouse, in vivo): toxic
- curative effect against T. brucei infection, parenteral ([7]; parenteral, 50 mg/kg dose level): some curative effect

SMILES: CN(C)CCOc1ccc2c(c1)c(Cc1ccccc1)c1ccccc1[n+]2C.Cl.[Cl-] [Example 78, 2-(2-Dimethylaminoethoxy)-10-methyl-9-benzylacridinium chloride hydrochloride]
- curative effect against T. brucei infection ([7]; 100 mg/kg/day×4): completely effective
- minimal effective dose [9]: 100 mg/kg

SMILES: CN(C)CCOc1ccc2c(c1)c(Cc1ccc(F)cc1)c1ccccc1[n+]2C.Cl.[Cl-] [Example 79, 2-(2-Dimethylaminoethoxy)-10-methyl-9-(4-fluorobenzyl)acridinium chloride hydrochloride]
- curative effect against T. brucei infection ([7]; 200 mg/kg/day×4): completely effective
- minimal effective dose [9]: 100 mg/kg

SMILES: Cc1ccc(Cc2c3ccccc3[n+](C)c3ccc(OCCN(C)C)cc23)cc1.Cl.[Cl-] [Example 80, 2-(2-Dimethylaminoethoxy)-10-methyl-9-(4-methylbenzyl)acridinium chloride hydrochloride]
- curative effect against T. brucei infection ([7]; 200 mg/kg/day×4): ineffective
- MIC [10]: 7.8 µg/mL
- MIC [11]: 15.6 µg/mL

SMILES: CN(C)CCOc1ccc2c(Cc3ccccc3)c3ccccc3[n+](C)c2c1.Cl.[Cl-] [Example 81, 3-(2-Dimethylaminoethoxy)-10-methyl-9-benzylacridinium chloride hydrochloride]
- curative effect against T. brucei infection ([7]; 100 mg/kg/day×4): completely effective
- MIC [10]: 31.3 µg/mL
- MIC ([11]; in vitro): 31.3 µg/mL

SMILES: CN(C)CCCOc1ccc2c(Cc3ccccc3)c3ccccc3[n+](C)c2c1.Cl.[Cl-] [Example 82, 3-(3-Dimethylaminopropoxy)-10-methyl-9-benzylacridinium chloride hydrochloride]
- curative effect against T. brucei infection ([7]; 100 mg/kg/day×4): completely effective
- MIC ([11]; in vitro): 31.3 µg/mL

SMILES: CN(C)CCOc1ccc2c(c1)c(Cc1ccc(Cl)cc1)c1ccccc1[n+]2C.Cl.[Cl-] [Example 83, 2-(2-Dimethylaminoethoxy)-10-methyl-9-(4-chlorobenzyl)acridinium chloride hydrochloride]
- curative effect against T. brucei infection ([7]; 200 mg/kg/day×4): ineffective
- MIC ([11]; in vitro): 7.8 µg/mL
- minimal effective concentration [1, 16]: 25 µg/mL

SMILES: CN(C)CCOc1ccc2c(c1)c(Cc1cccc(F)c1)c1ccccc1[n+]2C.Cl.[Cl-] [Example 84, 2-(2-Dimethylaminoethoxy)-10-methyl-9-(3-fluorobenzyl)acridinium chloride hydrochloride]
- curative effect against T. brucei infection ([7]; 200 mg/kg/day×4): completely effective
- MIC [10]: 15.6 µg/mL
- MIC ([11]; in vitro): 15.6 µg/mL

SMILES: CCN(CC)CCOc1ccc2c(c1)c(Cc1ccccc1)c1ccccc1[n+]2C.Cl.[Cl-] [Example 85, 2-(2-Diethylaminoethoxy)-10-methyl-9-benzylacridinium chloride hydrochloride]
- curative effect against T. brucei infection ([7]; 100 mg/kg/day×4): completely effective
- MIC [10]: 31.3 µg/mL
- MIC ([11]; in vitro): 31.3 µg/mL

SMILES: CN(C)CCOc1ccc2c(c1)c(Cc1ccccc1)c1ccc(Cl)cc1[n+]2C.Cl.[Cl-] [Example 86, 2-(2-Dimethylaminoethoxy)-6-chloro-10-methyl-9-benzylacridinium chloride hydrochloride]
- curative effect against T. brucei infection ([7]; 50 mg/kg/day×4): ineffective
- toxicity to the animals in the oral curative test ([7]; mouse, in vivo, po, 200 mg/kg/day): toxic to the animals
- MIC [10]: 7.8 µg/mL
- minimal effective concentration [1, 16]: 12 µg/mL
- MIC [12]: 15.6 µg/mL
- MIC [13]: 31.3 µg/mL

SMILES: COc1ccc2c(c1)c(Cc1ccccc1)c1ccc(OCCN(C)C)cc1[n+]2C.Cl.[Cl-] [Example 87, 3-(2-Dimethylaminoethoxy)-7-methoxy-10-methyl-9-benzylacridinium chloride hydrochloride]
- effect against T. brucei ([7]; 200 mg/kg/day×4, route and test type not given): ineffective
- minimal effective concentration [1, 14]: 12 µg/mL
